Like-named read-outs stand apart in the source and are kept apart here. Each block holds one molecule with its values, some of them ahead of it.
Molecular target: Mcl-1 protein (UniProtKB primary accession number: Q07820) (Homo sapiens, UniProt Q07820)
Test: Inhibition of Mcl-1 by fluorescence polarisation, Method 1
Assay type: binding
Conditions: for IC50: read-out: IC50 (M) Mcl-1 FP
Protocol: The relative binding potency of each compound was determined via Fluorescence Polarisation (FP).
An 11 point serial dilution of each compound was prepared in DMSO and 2 μl transferred into flat bottomed, low binding, 384-well plate (final DMSO concentration 5%). 38 μl of buffer (10 mM 4-(2-hydroxyethyl)-1-piperazineethanesulfonic acid [HEPES], 150 mM NaCl, 0.05% Tween 20, pH 7.4), containing the Fluorescein labelled ligand (final concentration 1 nM) and Mcl-1 protein (final concentration 5 nM) was then added.

[1] = test compound at 10 uM, Method 1, or Method 2 where the value is underlined (underlining not visible)
[2] = fluorescence polarisation test, Method 1, or Method 2 where the value is underlined (underlining not visible)
[3] = fluorescence polarisation, Method 1, or Method 2
[4] = fluorescence polarisation test, Method 2 values are underlined in the patent (underlining not visible here)

Chain of Mcl-1 protein (Q07820 whole entry): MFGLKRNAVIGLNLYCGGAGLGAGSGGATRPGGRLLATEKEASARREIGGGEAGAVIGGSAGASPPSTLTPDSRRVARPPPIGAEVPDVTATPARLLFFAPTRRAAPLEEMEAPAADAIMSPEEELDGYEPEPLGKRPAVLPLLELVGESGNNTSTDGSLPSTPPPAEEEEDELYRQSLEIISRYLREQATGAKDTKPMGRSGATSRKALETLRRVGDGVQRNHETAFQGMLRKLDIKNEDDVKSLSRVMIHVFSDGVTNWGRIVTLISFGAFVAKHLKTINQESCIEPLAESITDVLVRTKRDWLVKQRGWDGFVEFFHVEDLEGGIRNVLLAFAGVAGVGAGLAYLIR

Structure (SMILES): CCc1c(-c2c(-c3ccco3)sc3ncnc(O[C@H](Cc4ccccc4OC)C(=O)O)c23)ccc(OCCN2CCN(C)CC2)c1Cl [Example 336, (2R)-2-{[(5Ra)-5-{3-chloro-2-ethyl-4-[2-(4-methylpiperazin-1-yl)ethoxy]phenyl}-6-(furan-2-yl)thieno[2,3-d]pyrimidin-4-yl]oxy}-3-(2-methoxyphenyl)propanoic acid]
- percentage fluorescence polarisation inhibition (Mcl-1 FP), partial inhibitors (@ 10 uM test compound): 43.2% @ 10 uM

Structure (SMILES): CCc1sc2ncnc(OC(Cc3ccccc3)C(=O)O)c2c1-c1cc(OCCN2CCN(C)CC2)ccc1C [Example 440, (2R)-2-[(6-ethyl-(5Sa)-5-{2-methyl-5-[2-(4-methylpiperazin-1-yl)ethoxy]phenyl}thieno[2,3-d]pyrimidin-4-yl)oxy]-3-phenylpropanoic acid and (2S)-2-[(6-ethyl-(5Ra)-5-{2-methyl-5-[2-(4-methylpiperazin-1-yl)ethoxy]phenyl}thieno[2,3-d]pyrimidin-4-yl)oxy]-3-phenylpropanoic acid]
- IC50 [3]: 3e-07 M

Structure (SMILES): CCc1sc2ncnc(OC(Cc3ccccc3OC)C(=O)O)c2c1-c1ccc(O)c(Cl)c1C (single isomer, unassigned) [Example 681]
- IC50 [3]: 6.7e-09 M

Structure (SMILES): CCc1sc2ncnc(OC(Cc3ccccc3)C(=O)O)c2c1-c1ccc(OCCCO)c(Cl)c1C [Example 405, (2R)-2-({(5Sa)-5-[3-chloro-4-(3-hydroxypropoxy)-2-methylphenyl]-6-ethylthieno[2,3-d]pyrimidin-4-yl}oxy)-3-phenylpropanoic acid]
- IC50 [3]: 7.4e-09 M

Structure (SMILES): CCOC(=O)C(Cc1ccccc1OCc1ccnc(-c2ccccc2F)n1)Oc1ncnc2sc(-c3ccc(F)cc3)c(-c3ccc(OCCN(C)CC)c(Cl)c3C)c12 [Example 801, ethyl (2R)-2-{[(5Sa)-5-(3-chloro-4-{2-[ethyl(methyl)amino]ethoxy}-2-methylphenyl)-6-(4-fluorophenyl)thieno[2,3-d]pyrimidin-4-yl]oxy}-3-(2-{[2-(2-fluorophenyl)pyrimidin-4-yl]methoxy}phenyl)propanoate]
- IC50 [2]: 4.37e-06 M

Structure (SMILES): CC#Cc1sc2ncnc(OC(Cc3ccccc3OC)C(=O)O)c2c1-c1ccc(OCCN2CCOCC2)c(Cl)c1C [Example 685, (2R)-2-{[(5Sa)-5-{3-chloro-2-methyl-4-[2-(morpholin-4-yl)ethoxy]phenyl}-6-(prop-1-yn-1-yl)thieno[2,3-d]pyrimidin-4-yl]oxy}-3-(2-methoxyphenyl)propanoic acid]
- IC50 [3]: 1.2e-08 M

Structure (SMILES): CCc1sc2ncnc(O[C@H](Cc3ccccc3)C(=O)O)c2c1-c1ccc(OCCN2CCOCC2)c(Cl)c1C [Example 421, (2R)-2-[((5Ra)-5-{3-chloro-2-methyl-4-[2-(morpholin-4-yl)ethoxy]phenyl}-6-ethylthieno[2,3-d]pyrimidin-4-yl)oxy]-3-phenylpropanoic acid]
- percentage fluorescence polarisation inhibition, Mcl-1 FP (partial inhibitors, @ 10 uM test compound): 38.1% @ 10 uM

Structure (SMILES): CCCCn1nccc1COc1ccccc1CC(Oc1ncnc2sc(C#N)c(-c3ccc(OCCN4CCN(C)CC4)c(Cl)c3C)c12)C(=O)O [Example 614, (2R)-3-{2-[(1-butyl-1H-pyrazol-5-yl)methoxy]phenyl}-2-[((5Sa)-5-{3-chloro-2-methyl-4-[2-(4-methylpiperazin-1-yl)ethoxy]phenyl}-6-cyanothieno[2,3-d]pyrimidin-4-yl)oxy]propanoic acid]
- IC50 [3]: 8.4e-09 M

Structure (SMILES): COc1ccccc1CC(Oc1ncnc2sc(-c3ccc(C(OC)OC)o3)c(-c3ccc(OCCN4CCN(C)CC4)c(Cl)c3C)c12)C(=O)O [Example 542, (2R)-2-[((5Sa)-5-{3-chloro-2-methyl-4-[2-(4-methylpiperazin-1-yl)ethoxy]phenyl}-6-[5-(dimethoxymethyl)furan-2-yl]thieno[2,3-d]pyrimidin-4-yl)oxy]-3-(2-methoxyphenyl)propanoic acid]
- IC50 [3]: 4.3e-07 M

Structure (SMILES): COc1ccccc1CC(Oc1ncnc2sc(-c3ccco3)c(-c3ccc(OCCN4CCN(C)C(=O)C4)c(Cl)c3C)c12)C(=O)O [Example 321, (2R)-2-{[(5Sa)-5-{3-chloro-2-methyl-4-[2-(4-methyl-3-oxopiperazin-1-yl)ethoxy]phenyl}-6-(furan-2-yl)thieno[2,3-d]pyrimidin-4-yl]oxy}-3-(2-methoxyphenyl)propanoic acid]
- IC50 [4]: 6e-09 M

Structure (SMILES): CCOC(=O)C(Cc1ccccc1OC)Oc1ncnc2sc(-c3ccco3)c(-c3ccc(OCCN4CCN(C)CC4)c(Cl)c3C)c12 [Example 627, ethyl (2R)-2-{[(5Sa)-5-{3-chloro-2-methyl-4-[2-(4-methylpiperazin-1-yl)ethoxy]phenyl}-6-(furan-2-yl)thieno[2,3-d]pyrimidin-4-yl]oxy}-3-(2-methoxyphenyl)propanoate]
- IC50 [3]: 4.9e-07 M

Structure (SMILES): COCCOC(=O)C(Cc1ccccc1OCc1ccnn1C(C)(C)C)Oc1ncnc2sc(-c3ccc(F)cc3)c(-c3ccc(OCCN(C)C)c(Cl)c3C)c12 [Example 802, 2-methoxyethyl (2R)-3-{2-[(1-tert-butyl-1H-pyrazol-5-yl)methoxy]phenyl}-2-{[(5Sa)-5-{3-chloro-4-[2-(dimethylamino)ethoxy]-2-methylphenyl}-6-(4-fluorophenyl)thieno[2,3-d]pyrimidin-4-yl]oxy}propanoate]
- IC50 [2]: 2.88e-06 M

Structure (SMILES): Cc1c(-c2c(-c3ccc(F)o3)sc3ncnc(OC(Cc4ccccc4OCc4ccnc(-c5ccncc5)n4)C(=O)O)c23)ccc(OCCN2CCN(C)CC2)c1Cl [Example 172, (2R)-2-{[(5Sa)-5-{3-chloro-2-methyl-4-[2-(4-methylpiperazin-1-yl)ethoxy]phenyl}-6-(5-fluorofuran-2-yl)thieno[2,3-d]pyrimidin-4-yl]oxy}-3-(2-{[2-(pyridin-4-yl)pyrimidin-4-yl]methoxy}phenyl)propanoic acid]
- IC50 [4]: 3e-09 M

Structure (SMILES): Cc1c(-c2c(-c3ccco3)sc3ncnc(OC(Cc4ccccc4)C(=O)O)c23)ccc(OCCN2CCN(C)CC2)c1Cl [Example 504, (2R)-2-{[(5Sa)-5-{3-chloro-2-methyl-4-[2-(4-methylpiperazin-1-yl)ethoxy]phenyl}-6-(furan-2-yl)thieno[2,3-d]pyrimidin-4-yl]oxy}-3-phenylpropanoic acid]
- IC50 [3]: 2.9e-08 M

Now from value to molecule:

- percentage fluorescence polarisation inhibition (Mcl-1 FP), partial inhibitors [1]: 3.55% @ 10 uM
Structure (SMILES): CCCCCCCCOC(=O)[C@@H](Cc1ccccc1OCc1ccnc(-c2ccccc2OC)n1)Oc1ncnc2sc(-c3ccc(F)cc3)c(-c3ccc(OC)c(Cl)c3C)c12 [Example 847, octyl (2R)-2-{[(5Sa)-5-(3-chloro-4-methoxy-2-methylphenyl)-6-(4-fluorophenyl)thieno[2,3-d]pyrimidin-4-yl]oxy}-3-(2-{[2-(2-methoxyphenyl)pyrimidin-4-yl]methoxy}phenyl)propanoate]

- percentage fluorescence polarisation inhibition (Mcl-1 FP), partial inhibitors [1]: 7.65% @ 10 uM
Structure (SMILES): CCOC(=O)[C@@H](Cc1ccccc1OC)Oc1ncnc2sc(-c3ccc(F)cc3)c(-c3ccc(OC)c(Cl)c3C)c12 [Example 842, ethyl (2R)-2-{[(5Sa)-5-(3-chloro-4-methoxy-2-methylphenyl)-6-(4-fluorophenyl)thieno[2,3-d]pyrimidin-4-yl]oxy}-3-(2-methoxyphenyl)propanoate]

- percentage fluorescence polarisation inhibition (Mcl-1 FP), partial inhibitors [1]: 7.85% @ 10 uM
Structure (SMILES): CCCCCCCCOC(=O)[C@@H](Cc1ccccc1OC)Oc1ncnc2sc(-c3ccc(F)cc3)c(-c3ccc(OC)c(Cl)c3C)c12 [Example 851, octyl (2R)-2-{[(5Sa)-5-(3-chloro-4-methoxy-2-methylphenyl)-6-(4-fluorophenyl)thieno[2,3-d]pyrimidin-4-yl]oxy}-3-(2-methoxyphenyl)propanoate]

- IC50 [2]: 4.68e-05 M
Structure (SMILES): CCOC(=O)C(Cc1ccccc1OCc1ccnn1C(C)(C)C)Oc1ncnc2sc(-c3cccc(F)c3F)c(-c3ccc(OCCN(C)C)c(Cl)c3C)c12 [Example 804, ethyl (2R)-3-{2-[(1-tert-butyl-1H-pyrazol-5-yl)methoxy]phenyl}-2-{[(5Sa)-5-{3-chloro-4-[2-(dimethylamino)ethoxy]-2-methylphenyl}-6-(2,3-difluorophenyl)thieno[2,3-d]pyrimidin-4-yl]oxy}propanoate]

- IC50 [2]: 1.57e-07 M
Structure (SMILES): COCCOc1ccccc1-c1nccc(COc2ccccc2CC(Oc2ncnc3sc(-c4ccc(F)cc4)c(-c4ccc(OCCN(C)C)c(Cl)c4C)c23)C(=O)OCC(=O)N(C)C)n1 [Example 819, 2-(dimethylamino)-2-oxoethyl (2R)-2-{[(5Sa)-5-{3-chloro-4-[2-(dimethylamino)ethoxy]-2-methylphenyl}-6-(4-fluorophenyl)thieno[2,3-d]pyrimidin-4-yl]oxy}-3-[2-({2-[2-(2-methoxyethoxy)phenyl]pyrimidin-4-yl}methoxy)phenyl]propanoate]

- IC50 [2]: 2.7e-08 M
Structure (SMILES): COCC(=O)OC(C)OC(=O)[C@@H](Cc1ccccc1OCc1ccnc(-c2ccccc2OC)n1)Oc1ncnc2sc(-c3ccc(F)cc3)c(-c3ccc(OCCN4CCN(C)CC4)c(Cl)c3C)c12 (stereo partly drawn) [Example 864, 1-[(methoxyacetyl)oxy]ethyl (2R)-2-{[5-{3-chloro-2-methyl-4-[2-(4-methylpiperazin-1-yl)ethoxy]phenyl}-6-(4-fluorophenyl)thieno[2,3-d]pyrimidin-4-yl]oxy}-3-(2-{[2-(2-methoxyphenyl)pyrimidin-4-yl]methoxy}phenyl)propanoate]

- percentage fluorescence polarisation inhibition (Mcl-1 FP), partial inhibitors [1]: 23.05% @ 10 uM
Structure (SMILES): CCOC(=O)[C@@H](Cc1ccccc1OCc1ccnc(-c2ccccc2OC)n1)Oc1ncnc2sc(-c3ccc(F)cc3)c(-c3ccc(OC)c(Cl)c3C)c12 [Example 843, ethyl (2R)-2-{[(5Sa)-5-(3-chloro-4-methoxy-2-methylphenyl)-6-(4-fluorophenyl)thieno[2,3-d]pyrimidin-4-yl]oxy}-3-(2-{[2-(2-methoxyphenyl)pyrimidin-4-yl]methoxy}phenyl)propanoate]

Source: patent publication US9670227B2, “Thienopyrimidine derivatives, a process for their preparation and pharmaceutical compositions containing them” (LES LABORATOIRES SERVIER, priority 2013, dated 2017)
